Source: BigSolDB 2.1

COC(=O)Nc1nc2ccc(C(=O)c3ccc(F)cc3)cc2[nH]1
solubility (mole fraction) (in 1,4-dioxane, 288.15 K): 8.29e-05
solubility (mole fraction) (in 1,4-dioxane, 293.15 K): 9.83e-05
solubility (mole fraction) (in 1,4-dioxane, 298.15 K): 0.00012
solubility (mole fraction) (in 1,4-dioxane, 303.15 K): 0.00014
solubility (mole fraction) (in 1,4-dioxane, 308.15 K): 0.000168
solubility (mole fraction) (in 1,4-dioxane, 313.15 K): 0.000195
solubility (mole fraction) (in 1,4-dioxane, 318.15 K): 0.000229
solubility (mole fraction) (in 1,4-dioxane, 323.15 K): 0.000266
solubility (mole fraction) (in 1,4-dioxane, 328.15 K): 0.000308
solubility (mole fraction) (in 1,4-dioxane, 333.15 K): 0.000357
solubility (mole fraction) (in 2-butanone, 283.15 K): 0.000232
solubility (mole fraction) (in 2-butanone, 288.15 K): 0.000305
solubility (mole fraction) (in 2-butanone, 293.15 K): 0.000401
solubility (mole fraction) (in 2-butanone, 298.15 K): 0.000516
solubility (mole fraction) (in 2-butanone, 303.15 K): 0.000682
solubility (mole fraction) (in 2-butanone, 308.15 K): 0.000837
solubility (mole fraction) (in 2-butanone, 313.15 K): 0.00104
solubility (mole fraction) (in 2-butanone, 318.15 K): 0.00132
solubility (mole fraction) (in 2-butanone, 323.15 K): 0.0017
solubility (mole fraction) (in 2-butanone, 328.15 K): 0.00204
solubility (mole fraction) (in 2-butanone, 333.15 K): 0.00248
solubility (mole fraction) (in DMF, 283.15 K): 0.000572
solubility (mole fraction) (in DMF, 288.15 K): 0.000708
solubility (mole fraction) (in DMF, 293.15 K): 0.000821
solubility (mole fraction) (in DMF, 298.15 K): 0.00098
solubility (mole fraction) (in DMF, 303.15 K): 0.00116
solubility (mole fraction) (in DMF, 308.15 K): 0.00138
solubility (mole fraction) (in DMF, 313.15 K): 0.00162
solubility (mole fraction) (in DMF, 318.15 K): 0.00188
solubility (mole fraction) (in DMF, 323.15 K): 0.0022
solubility (mole fraction) (in DMF, 328.15 K): 0.00259
solubility (mole fraction) (in DMF, 333.15 K): 0.00309
solubility (mole fraction) (in DMSO, 293.15 K): 0.00191
solubility (mole fraction) (in DMSO, 298.15 K): 0.00221
solubility (mole fraction) (in DMSO, 303.15 K): 0.00261
solubility (mole fraction) (in DMSO, 308.15 K): 0.00303
solubility (mole fraction) (in DMSO, 313.15 K): 0.00358
solubility (mole fraction) (in DMSO, 318.15 K): 0.00419
solubility (mole fraction) (in DMSO, 323.15 K): 0.00481
solubility (mole fraction) (in DMSO, 328.15 K): 0.00548
solubility (mole fraction) (in DMSO, 333.15 K): 0.00627
solubility (mole fraction) (in NMP, 283.15 K): 0.00078
solubility (mole fraction) (in NMP, 288.15 K): 0.000918
solubility (mole fraction) (in NMP, 293.15 K): 0.00103
solubility (mole fraction) (in NMP, 298.15 K): 0.00122
solubility (mole fraction) (in NMP, 303.15 K): 0.00142
solubility (mole fraction) (in NMP, 308.15 K): 0.00162
solubility (mole fraction) (in NMP, 313.15 K): 0.00188
solubility (mole fraction) (in NMP, 318.15 K): 0.00215
solubility (mole fraction) (in NMP, 323.15 K): 0.00252
solubility (mole fraction) (in NMP, 328.15 K): 0.00308
solubility (mole fraction) (in NMP, 333.15 K): 0.00373
solubility (mole fraction) (in ethanol, 283.15 K): 1.03e-06
solubility (mole fraction) (in ethanol, 288.15 K): 1.56e-06
solubility (mole fraction) (in ethanol, 293.15 K): 2.41e-06
solubility (mole fraction) (in ethanol, 298.15 K): 3.74e-06
solubility (mole fraction) (in ethanol, 303.15 K): 5.44e-06
solubility (mole fraction) (in ethanol, 308.15 K): 7.73e-06
solubility (mole fraction) (in ethanol, 313.15 K): 1.01e-05
solubility (mole fraction) (in ethanol, 318.15 K): 1.41e-05
solubility (mole fraction) (in ethanol, 323.15 K): 1.94e-05
solubility (mole fraction) (in ethanol, 328.15 K): 2.55e-05
solubility (mole fraction) (in ethanol, 333.15 K): 3.33e-05
solubility (mole fraction) (in isobutanol, 283.15 K): 1.2e-05
solubility (mole fraction) (in isobutanol, 288.15 K): 1.62e-05
solubility (mole fraction) (in isobutanol, 293.15 K): 2.13e-05
solubility (mole fraction) (in isobutanol, 298.15 K): 2.73e-05
solubility (mole fraction) (in isobutanol, 303.15 K): 3.55e-05
solubility (mole fraction) (in isobutanol, 308.15 K): 4.61e-05
solubility (mole fraction) (in isobutanol, 313.15 K): 5.88e-05
solubility (mole fraction) (in isobutanol, 318.15 K): 7.44e-05
solubility (mole fraction) (in isobutanol, 323.15 K): 9.39e-05
solubility (mole fraction) (in isobutanol, 328.15 K): 0.000116
solubility (mole fraction) (in isobutanol, 333.15 K): 0.000135
solubility (mole fraction) (in isopropanol, 283.15 K): 6.58e-06
solubility (mole fraction) (in isopropanol, 288.15 K): 7.97e-06
solubility (mole fraction) (in isopropanol, 293.15 K): 9.58e-06
solubility (mole fraction) (in isopropanol, 298.15 K): 1.14e-05
solubility (mole fraction) (in isopropanol, 303.15 K): 1.34e-05
solubility (mole fraction) (in isopropanol, 308.15 K): 1.63e-05
solubility (mole fraction) (in isopropanol, 313.15 K): 1.93e-05
solubility (mole fraction) (in isopropanol, 318.15 K): 2.22e-05
solubility (mole fraction) (in isopropanol, 323.15 K): 2.65e-05
solubility (mole fraction) (in isopropanol, 328.15 K): 3.12e-05
solubility (mole fraction) (in isopropanol, 333.15 K): 3.56e-05
solubility (mole fraction) (in methanol, 283.15 K): 7.08e-07
solubility (mole fraction) (in methanol, 288.15 K): 1.05e-06
solubility (mole fraction) (in methanol, 293.15 K): 1.57e-06
solubility (mole fraction) (in methanol, 298.15 K): 2.25e-06
solubility (mole fraction) (in methanol, 303.15 K): 3.15e-06
solubility (mole fraction) (in methanol, 308.15 K): 4.41e-06
solubility (mole fraction) (in methanol, 313.15 K): 6.31e-06
solubility (mole fraction) (in methanol, 318.15 K): 8.49e-06
solubility (mole fraction) (in methanol, 323.15 K): 1.17e-05
solubility (mole fraction) (in methanol, 328.15 K): 1.59e-05
solubility (mole fraction) (in methanol, 333.15 K): 2.14e-05
solubility (mole fraction) (in n-butanol, 283.15 K): 1.93e-05
solubility (mole fraction) (in n-butanol, 288.15 K): 2.58e-05
solubility (mole fraction) (in n-butanol, 293.15 K): 3.46e-05
solubility (mole fraction) (in n-butanol, 298.15 K): 4.36e-05
solubility (mole fraction) (in n-butanol, 303.15 K): 5.64e-05
solubility (mole fraction) (in n-butanol, 308.15 K): 7.1e-05
solubility (mole fraction) (in n-butanol, 313.15 K): 8.77e-05
solubility (mole fraction) (in n-butanol, 318.15 K): 0.000111
solubility (mole fraction) (in n-butanol, 323.15 K): 0.000141
solubility (mole fraction) (in n-butanol, 328.15 K): 0.000173
solubility (mole fraction) (in n-butanol, 333.15 K): 0.000218
solubility (mole fraction) (in n-propanol, 283.15 K): 7.7e-06
solubility (mole fraction) (in n-propanol, 288.15 K): 1e-05
solubility (mole fraction) (in n-propanol, 293.15 K): 1.32e-05
solubility (mole fraction) (in n-propanol, 298.15 K): 1.69e-05
solubility (mole fraction) (in n-propanol, 303.15 K): 2.16e-05
solubility (mole fraction) (in n-propanol, 308.15 K): 2.64e-05
solubility (mole fraction) (in n-propanol, 313.15 K): 3.39e-05
solubility (mole fraction) (in n-propanol, 318.15 K): 4.31e-05
solubility (mole fraction) (in n-propanol, 323.15 K): 5.53e-05
solubility (mole fraction) (in n-propanol, 328.15 K): 6.78e-05
solubility (mole fraction) (in n-propanol, 333.15 K): 8.09e-05
solubility (mole fraction) (in water, 283.15 K): 1.03e-07
solubility (mole fraction) (in water, 288.15 K): 1.31e-07
solubility (mole fraction) (in water, 293.15 K): 1.67e-07
solubility (mole fraction) (in water, 298.15 K): 2.12e-07
solubility (mole fraction) (in water, 303.15 K): 2.6e-07
solubility (mole fraction) (in water, 308.15 K): 3.23e-07
solubility (mole fraction) (in water, 313.15 K): 4e-07
solubility (mole fraction) (in water, 318.15 K): 4.96e-07
solubility (mole fraction) (in water, 323.15 K): 6.07e-07
solubility (mole fraction) (in water, 328.15 K): 7.33e-07
solubility (mole fraction) (in water, 333.15 K): 8.81e-07
